The results in this text go back to publication PMC9822352, “Design, Synthesis and Evaluation of New Multifunctional Benzothiazoles as Photoprotective, Antioxidant and Antiproliferative Agents” (Molecules, 2022).

Series [1] is described as follows: In vitro filtering parameters of O/W sunscreen formulation containing 3% compound (modified Diffey-Robson, PMMA plates). The following applies: 3% in formulation, before irradiation. From the text: All synthesized compounds were formulated at 3% and their photoprotective efficacy, determined by spectrophotometric measurements using the modified Diffey-Robson method, was compared with that of the lead compound PBSA (used at 3% in the same formulation) and using the base without active as a control (Table 2).
The synthesized compounds were incorporated at a concentration of 3% in a typical oil-in-water sunscreen formulation, to evaluate the filtering parameters, and have the following ingredient composition:
INCI (International Nomenclature Cosmetic Ingredients): aqua, glycerin, Euxyl PE 9010, xanthan gum, Tribehenin PEG-20 Esters, cetearyl alcohol, dicaprylyl carbonate, PPG-26-Buteth-26 (and) PEG-40 Hydrogenated Castor Oil (and) water, C12-C15 Alkyl Benzoate, and Sodium hydroxide (sol. 10%).
As previously reported the protocol indicates to spread 32.5 mg of each formulation on 25 cm^2 PMMA plates with the fingers. Each formulation was tested in triplicate, and five measurements were recorded for each dish, following a 15–30 min incubation in the dark at room temperature. UV transmittance data was recorded using a UV-VIS spectrophotometer in the range 290–400 nm. The blank plate, SPF, UVA-PF and critical wavelength were obtained by SPF Calculator software (version 2.1), Shimadzu, Milan, Italy).

A short description of series [2]: FRAP (Ferric Reducing Antioxidant Power) assay. The following applies: Trolox standard, 37 °C 10 min, 593 nm; mean ± SEM. From the text:
The FRAP (Ferric Reducing Antioxidant Power) test allows the measurement of the ability of antioxidants to reduce ferric ion to ferrous. This method represents one of the simplest, quickest and least expensive methods for the determination of reducing properties on oxidized species in vitro.
The FRAP test (Ferric Reducing Antioxidant Power) is based on a colorimetric reaction and evaluates the ability of a sample of reducing ferric ions to ferrous ion while complexed with TPTZ (2,4,6-trispyridil-s-triazine). The FRAP solution was prepared from 0.1 M acetate buffer (pH 3.6), 10 mmol/L of TPTZ in 40 mM HCl, and 20 mM solution of FeCl3, with a 10:1:1 ratio, as described. Then, 1.9 mL of this solution was incubated with 0.1 mL of the sample solution at 37 °C for 10 min. The absorbance was read with a UV-Vis spectrophotometer at a 593 nm wavelength, relative to the maximum peak of absorbance of Fe^2+-TPTZ complex. Trolox® was used as a standard and the results are expressed as µmolTE/g.

A short description of series [3]: UV spectra in solution (MeOH-DMSO): λmax and molar extinction coefficient. Type of series: physicochemical. The following applies: for ε (molar extinction coefficient): at λmax, Lambert-Beer equation, in M-1 cm-1 (unit assumed); for λmax: solution in MeOH-DMSO, 290–400 nm. The protocol:
We next investigated the protective potential against UV radiation of each compound. Specifically, in vitro tests were conducted to determine the parameters related to absorption in the UV spectrum and those fundamental to the relative evaluation of the filtering potential and thus candidature as possible UV sunscreen ingredients of the candidates under examination, including λ critical and SPF (sun protection factor). Since the SPF is correlated to the UV quantitative absorption of the substances, the wavelength of maximum absorption (λmax) and the molar extinction coefficient (ε) of the derivatives in solution (MeOH-DMSO) were evaluated (Figures S1 and S2, Supplementary Materials). The UV spectra of the compounds BZTidr1–6 and BZTcin1–5 were recorded in the UVA-UVB range (290–400 nm) to evaluate their profile and compare it to that of the PBSA, a commercial UVB filter that has a λmax of 302 nm. After this peak, the absorbance of PBSA drops, reaching almost zero in the 325 nm range, and thus not providing absorption in the UVA region.
Once the λmax of each derivative was established, the molar extinction coefficient ε was calculated by applying the Lambert-Beer equation (Table S1, Supplementary Materials): the higher this value, the greater the ability of the compound under examination to absorb UV radiation. […] The excellent values of BZTidr1, BZTidr2 and BZTidr3 are ascribed to the aforementioned hyperchromic shift. In regard to the BZTcin1–5 series, the molar extinction coefficients calculated were very high, and the best values were those of BZTcin1, BZTcin2 and BZTcin3, also attributable to the hyperchromic shift of the absorption spectra. For both series, the excellent absorption capacity of ultraviolet radiation can be traced back to the high π-type conjugation that characterizes them.

A short description of series [4]: DPPH radical scavenging test. Particulars: compound at 1 mg/mL, 30 min, 517 nm; mean ± SEM. On the procedure: The DPPH assay is widely used, and the simplest and fastest in vitro method for evaluating the antioxidant power of extracts or isolated compounds; it is based on the depletion of the 2,2-diphenyl-1-picrylhydrazyl radical (DPPH˙) by an antioxidant molecule with scavenger activity. This is an extremely sensitive test that can detect the activity of active ingredients present in very low concentrations.
The procedure used was adapted from Wang et al.. Briefly, 0.750 mL of a methanolic solution of each tested compound was treated with 1.5 mL of DPPH solution (0.004%) in MeOH. Samples were stored in the dark at room temperature for 30 min, and the absorbance value was read with a spectrophotometer at 517 nm, which is the maximum peak of absorbance relative to the DPPH radical absorption spectra. The values obtained were fitted into Equation (1) and converted to inhibition percentage (%) of the radical:DPPH inhibition percentage (%) = 100 × [1 − A1/A0](1) where A1 and A0 were, respectively, the absorbance recorded with and without the sample, which are directly proportional to DPPH residual concentration in the sample and DPPH concentration in the control (0.750 of MeOH and 1.5 mL of DPPH solution). […] A linear regression was performed to calculate the sample concentration able to eliminate 50% of DPPH free radicals.
For orientation: Loss of DPPH colour is used to gauge radical scavenging.

A short description of series [5]: Photostability study of 3% formulation (post-irradiation filtering parameters). The following applies: 3% in formulation, post irradiation. An excerpt:
To outline the efficacy and safety profile of a sunscreen formulation, it is essential to provide data relating to photostability. It is possible to provide photodegradation data by recording, pre- and post-irradiation, the transmittance of PMMA plates with finger-coat formulations subjected to a dose of UVA capable of causing erythema, according to the criteria of Garoli et al.. By means of Equations (2) and (3) it was possible to evaluate the residual percentage of SPF in vitro and of UVA-PF for all the prepared formulations. Of greatest interest are the values obtained for the derivatives BZTcin2 and BZTcin4.
To determine the photostability, the previously reported method was adopted, which consists in preparing each plate as mentioned above and subjecting it to solar irradiation quantified as the minimum dose of UVA equivalent to an effective radiant exposure of erythema. The protocol stipulates that, before and after exposure to sunlight, the transmission of the sun protection layer in the range of 290–400 nm is recorded.
Using Equations (2) and (3) below, the residual percentage of SPF in vitro (% SPFeff.) and UVA-PF (% UVA-PFeff.) have been obtained, which, if greater than or equal to 80, can classify a filter as photostable. %SPFeff. = in vitro SPFafter/in vitro SPFbefore × 100(2) %UVA − PFeff. = UVA − PFafter/UVA − PFbefore × 100(3)

A further series relates to HaCat keratinocytes. Put plainly: Cell growth inhibition assay, HaCat. The following applies: Homo sapiens, HaCaT; 24 h incubation, cell count. Type of series: cell-based, human. The protocol:
(§1) All synthesized compounds were tested in order to evaluate their in vitro antiproliferative activity. The human melanoma Colo-38 cell line was selected as a tumor skin model, while the immortalized human HaCaT keratinocytes were chosen as a control for the evaluation of the cytotoxicity towards non-cancerous cells and of the selectivity towards tumor cell lines. […] The selectivity index (SI) was also calculated and is the ratio between the IC50 of a given compound towards the non-cancerous cell line and the IC50 of the same compound towards the tumor cell line.
(§2) Cell growth inhibition assays were carried out using human melanoma Colo-38 cells and skin HaCat keratinocytes cells. Human melanoma Colo-38 cells were kindly provided by Dr. Patrizio Giacomini (Laboratory of Immunology, Regina Elena Institute, Rome, Italy). HaCat cells were kindly provided by Istituto Zooprofilattico Sperimentale della Lombardia e dell’Emilia Romagna, Brescia, Italy. Cell lines were seeded using concentrations of 40,000 cells/mL and 25,000 cells/mL, respectively. Colo-38 cells were maintained in RPMI 1640, supplemented with 10% fetal bovine serum (FBS), penicillin (100 Units mL^−1), and streptomycin (100 µg mL^−1). HaCat cells were maintained in DMEM, supplemented with 10% fetal bovine serum (FBS), penicillin (100 Units mL^−1), streptomycin (100 µg mL^−1) and glutamine (2 mM); the incubation was performed at 37 °C in a 5% CO2 atmosphere. Tested compounds were dissolved in MeOH/DMSO (1:1) to obtain 50 mM stock solutions and diluted before cell treatment in MeOH 100%. The tested compounds were added at serial dilutions to the cell cultures (from 0.1 to 100 µM) and incubated for 24 h further. Cells were then harvested, suspended in physiological solution, and counted with a Z2 Coulter Counter (Coulter Electronics, Hialeah, FL, USA). The cell number/mL and the IC50 values were determined when untreated cells were in the log phase of cell growth. Cells treated with vehicles and untreated cells were placed in each plate.

In the next series the test system is melanoma Colo-38 cells. As to the kind of experiment: Cell growth inhibition assay, Colo-38. Type of series: cell-based, human. Particulars: Homo sapiens; 24 h incubation, cell count. On the procedure:
as §1, §2

Take `O=C(N/N=C/c1ccccc1)c1nc2ccccc2s1` [BZTidr1, (E)-N′-benzylidenebenzo[d]thiazole-2-carbohydrazide]: the melting point (in general, the temperature of the solid-liquid transition) lay within 227 to 230 °C. Also, in series [1], the SPF is given as 1.48, the UVA/UVB turned out to be 1.00, the UVAPF0 is recorded as 1.37 and the λc worked out at 374 nm. In addition, the FRAP in series [2] is given as 282.16 ± 15.03 µmolTE/g. In series [3], the “ε (molar extinction coefficient)” value was determined as 33223.32 and the λmax was 319.4 nm. Further, the “DPPH (% Inhibition)” value in series [4] was 10.95 ± 0.12%. Besides, in series [5], the SPF is reported as 1.42, the UVA/UVB is 1.00, the UVAPF is recorded as 1.42 and the λc stood at 372 nm.
With `COc1ccc(/C=N/NC(=O)c2nc3ccccc3s2)cc1` [BZTidr3, (E)-N′-(4-methoxybenzylidene)benzo[d]thiazole-2-carbohydrazide], the melting point lay in the range of 208 to 215 °C. For the same molecule, in series [1], the SPF stood at 1.31, the UVA/UVB came out at 1.11, the UVAPF0 came to 1.44 and the λc amounted to 387 nm. In series [2], this molecule had an FRAP of 273.99 ± 10.12 µmolTE/g. In series [3], the “ε (molar extinction coefficient)” value is on record as 29641.85 and the λmax was 333.1 nm. The “DPPH (% Inhibition)” value in series [4] is 24.25 ± 1.38%. In series [5], this molecule gave an SPF of 1.31, a UVA/UVB of 1.11, a UVAPF of 1.41 and a λc of 387 nm.
With `O=C(N/N=C/c1ccc(O)c(O)c1)c1nc2ccccc2s1` [BZTidr4, (E)-N′-(3,4-dihydroxybenzylidene)benzo[d]thiazole-2-carbohydrazide], the melting point was over 280 °C. For the same molecule, in series [1], the SPF was determined as 1.53, the UVA/UVB was determined as 1.05, the UVAPF0 came to 1.65 and the λc is 389 nm. Further, in series [3], the “ε (molar extinction coefficient)” value was determined as 22183.99 and the λmax turned out to be 346.2 nm. Further, the IC50 (commonly the midpoint of a concentration-inhibition curve) in the series on HaCat keratinocytes was over 100 µM. This molecule also came in with an IC50 with melanoma Colo-38 cells of 92.9 ± 1.62 µM. Further, the “DPPH (% Inhibition)” value in series [4] is recorded as over 90.00%. Besides, in series [5], the SPF turned out to be 1.63, the UVA/UVB is given as 1.05, the UVAPF turned out to be 1.64 and the λc came out at 389 nm.
